Results on 37 compounds are retold here after ChEMBL document CHEMBL5579813, “2-(3-Indolyl)acetamides and their oxazoline analogues: Anticancer SAR study” (Bioorg Med Chem Lett, 2024).

The first series deals with SW-620. In words: Antiproliferative activity against human SW620 cells assessed as reduction in cell growth incubated for 96 hrs by MTT assay. The class given is functional, cell-based. The note with it: SW-620, 96 h. (In general: Formazan colour is commonly taken as a measure of viable cells.)
One may read the IC50 as the concentration needed to halve the response being measured. As to `Cc1ccc(C(C(N)=O)c2c(-c3ccc4ccccc4c3)[nH]c3ccccc23)cc1` (stereo not drawn), the IC50 is 0.37 µM.
`COc1ccc(C(C(N)=O)c2c(-c3ccc4ccccc4c3)[nH]c3ccccc23)cc1OC` (stereo not drawn): the IC50 was found to be 1.71 µM.
On the same count and under the same terms, as for `COc1ccccc1C(C(N)=O)c1c(-c2ccc3ccccc3c2)[nH]c2ccccc12` (stereo not drawn), the figure is 1.41 µM.

Test system in another series: not listed separately
In words: Antiproliferative activity against human Kelly cells assessed as reduction in cell growth incubated for 96 hrs by MTT assay. The class given is functional, cell-based.
Details: not given
In the case of `Cc1ccc(C(C(N)=O)c2c(-c3ccc4ccccc4c3)[nH]c3ccccc23)cc1` (stereo not drawn), the IC50 amounted to 0.93 µM.
The same measure, in the same setting: as for `COc1ccc(C(C(N)=O)c2c(-c3ccc4ccccc4c3)[nH]c3ccccc23)cc1OC` (stereo not drawn), the figure is 0.23 µM; as for `COc1ccccc1C(C(N)=O)c1c(-c2ccc3ccccc3c2)[nH]c2ccccc12` (stereo not drawn), 1.33 µM.

Test system in a further series: not listed separately
Description: Antiproliferative activity against human fibroblasts assessed as reduction in cell growth incubated for 96 hrs by MTT assay. The class given is toxicity, cell-based, Fibroblast.
Details: not given
Turning to `Cc1ccc(C(C(N)=O)c2c(-c3ccc4ccccc4c3)[nH]c3ccccc23)cc1` (stereo not drawn), the IC50 at 96 h came out at 75.7 µM.
As to `COc1ccc(C(C(N)=O)c2c(-c3ccc4ccccc4c3)[nH]c3ccccc23)cc1OC` (stereo not drawn), the IC50 at 96 h came to 192 µM.
On the same count and under the same terms, as for `COc1ccccc1C(C(N)=O)c1c(-c2ccc3ccccc3c2)[nH]c2ccccc12` (stereo not drawn), the figure is 155 µM.

In another series the test system is BE(2)-C. Description: Antiproliferative activity against human BE2C cells assessed as reduction in cell growth incubated for 96 hrs by MTT assay. In kind it is functional, cell-based.
Details: not given
Turning to `NC(=O)C(c1ccccc1)c1c(-c2ccc3ccccc3c2)[nH]c2ccccc12` (stereo not drawn), the IC50 is 8.46 µM.
On the same count and under the same terms, as for `COc1ccc(C(C(N)=O)c2c(-c3ccc4ccccc4c3)[nH]c3ccccc23)cc1` (stereo not drawn), the figure is 0.47 µM.
The same measure, in the same setting: as for `COc1ccc(C(C2=NC(C)(C)CO2)c2c(-c3ccc(C)cc3)[nH]c3ccccc23)cc1` (stereo not drawn), the figure is 9.4 µM; as for `COc1ccc(-c2[nH]c3ccccc3c2C(C(N)=O)c2ccc(C)cc2)cc1` (stereo not drawn), 4.65 µM.
On the same count and under the same terms, as for `CC(C)c1ccc(C(C(N)=O)c2c(-c3ccccc3)[nH]c3ccccc23)cc1` (stereo not drawn), the figure is 24 µM; as for `CC1(C)COC(C(c2ccccc2F)c2c(-c3ccc4c(c3)CCCC4)[nH]c3ccccc23)=N1` (stereo not drawn), 88 µM; as for `NC(=O)C(c1ccc(Cl)cc1)c1c(-c2ccc3ccccc3c2)[nH]c2ccccc12` (stereo not drawn), 0.79 µM.
As for `COc1ccccc1C(C1=NC(C)(C)CO1)c1c(-c2ccc3c(c2)CCCC3)[nH]c2ccccc12` (stereo not drawn), the half-inhibitory concentration (IC50) was found to be 20 µM.
With `NC(=O)C(c1ccccc1Cl)c1c(-c2ccc3ccccc3c2)[nH]c2ccccc12` (stereo not drawn), the IC50 amounted to 0.96 µM.
Regarding `Cc1ccc(C(C(N)=O)c2c(-c3ccc4ccccc4c3)[nH]c3ccccc23)cc1` (stereo not drawn), the IC50 worked out at 0.29 µM.
Same read-out and setting: as for `NC(=O)C(c1ccc(Cl)cc1)c1c(-c2ccccc2)[nH]c2ccccc12` (stereo not drawn), the figure is 0.99 µM.
The same measure, in the same setting: as for `COc1ccc(-c2[nH]c3ccccc3c2C(C(N)=O)c2ccccc2OC)cc1` (stereo not drawn), the figure is 7.34 µM; as for `NC(=O)C(c1ccccc1)c1c(-c2ccccc2)[nH]c2ccc(Cl)cc12` (stereo not drawn), 14 µM; as for `CC1(C)COC(C(c2ccccc2Cl)c2c(-c3ccc4c(c3)CCCC4)[nH]c3ccccc23)=N1` (stereo not drawn), 6.1 µM.
The same measure, in the same setting: as for `COc1ccc(C(C(N)=O)c2c(-c3ccc4ccccc4c3)[nH]c3ccccc23)cc1OC` (stereo not drawn), the figure is 0.25 µM.
With `CC1(C)COC(C(c2ccc(Cl)cc2)c2c(-c3ccc4c(c3)CCCC4)[nH]c3ccccc23)=N1` (stereo not drawn), the IC50 worked out at 18.8 µM.
Same read-out and setting: as for `COc1ccccc1C(C(N)=O)c1c(-c2ccc3ccccc3c2)[nH]c2ccccc12` (stereo not drawn), the figure is 0.28 µM.
On the same count and under the same terms, as for `CC1=C(/C=C/C(C)=C/C=C/C(C)=C/C(=O)O)C(C)(C)CCC1` [TRETINOIN], the figure is 6.7 µM.

The test system of the next series is BE(2)-C. In words: Antiproliferative activity against human BE2C cells assessed as residual cell viability at 25 uM incubated for 96 hrs by MTT assay relative to control.
Details: not given
The class given is functional.
With `NC(=O)C(c1ccccc1)c1c(-c2ccc3ccccc3c2)[nH]c2ccccc12` (stereo not drawn), the Residual cell viability is 19.2%.
For `NC(=O)C(c1ccccc1)c1c(-c2ccc3ccccc3c2)[nH]c2ccc(Cl)cc12` (stereo not drawn), the Residual cell viability worked out at 144%.
Still for that read-out and setting: as for `COc1ccc(C(C(N)=O)c2c(-c3ccccc3)[nH]c3ccccc23)cc1` (stereo not drawn), the figure is 129%.
Same read-out and setting: as for `COc1ccc(C(C(N)=O)c2c(-c3ccccc3)[nH]c3ccccc23)cc1OC` (stereo not drawn), the figure is 16.1%.
For `NC(=O)C(c1ccccc1)c1c(-c2ccccc2)[nH]c2ccccc12` (stereo not drawn), the Residual cell viability was 185%.
Turning to `CC1(C)COC(C(c2ccccc2)c2c(-c3ccccc3)[nH]c3ccccc23)=N1` (stereo not drawn), the Residual cell viability is reported as 13.3%.
`COc1ccc(-c2[nH]c3ccccc3c2C(C(N)=O)c2ccccc2)cc1` (stereo not drawn): the Residual cell viability came to 100%.
Still for that read-out and setting: as for `CCc1ccc(C(C2=NC(C)(C)CO2)c2c(-c3ccc(C)c(C)c3)[nH]c3ccccc23)cc1` (stereo not drawn), the figure is 16.5%; as for `COc1ccc(C(C(N)=O)c2c(-c3ccc4ccccc4c3)[nH]c3ccccc23)cc1` (stereo not drawn), 13.7%; as for `COc1ccc(C(C2=NC(C)(C)CO2)c2c(-c3ccc(C)cc3)[nH]c3ccccc23)cc1` (stereo not drawn), 17.2%.
The same measure, in the same setting: as for `COc1ccc(-c2[nH]c3ccccc3c2C(C(N)=O)c2ccc(C)cc2)cc1` (stereo not drawn), the figure is 87%; as for `CC(C)c1ccc(C(C(N)=O)c2c(-c3ccccc3)[nH]c3ccccc23)cc1` (stereo not drawn), 88%; as for `CC1(C)COC(C(c2ccccc2F)c2c(-c3ccc4c(c3)CCCC4)[nH]c3ccccc23)=N1` (stereo not drawn), 25.6%.
Take `CCc1ccc(C(C2=NC(C)(C)CO2)c2c(-c3ccc4c(c3)CCCC4)[nH]c3ccccc23)cc1` (stereo not drawn): the Residual cell viability is listed as 33.3%.
The same measure, in the same setting: as for `NC(=O)C(c1ccc(Cl)cc1)c1c(-c2ccc3ccccc3c2)[nH]c2ccccc12` (stereo not drawn), the figure is 13.9%; as for `COc1ccccc1C(C1=NC(C)(C)CO1)c1c(-c2ccc3c(c2)CCCC3)[nH]c2ccccc12` (stereo not drawn), 42%.
In the case of `NC(=O)C(c1ccccc1Cl)c1c(-c2ccc3ccccc3c2)[nH]c2ccccc12` (stereo not drawn), the Residual cell viability came to 132%.
Still for that read-out and setting: as for `CCc1ccc(C(C2=NC(C)(C)CO2)c2c(-c3ccc(C)cc3)[nH]c3ccccc23)cc1` (stereo not drawn), the figure is 189%.
On the same count and under the same terms, as for `NC(=O)C(c1cccc(Cl)c1)c1c(-c2ccc3ccccc3c2)[nH]c2ccccc12` (stereo not drawn), the figure is 142%.
On the same count and under the same terms, as for `COc1ccc(C(C2=NC(C)(C)CO2)c2c(-c3ccc(C)c(C)c3)[nH]c3ccccc23)cc1` (stereo not drawn), the figure is 135%; as for `Cc1ccc(C(C(N)=O)c2c(-c3ccc4ccccc4c3)[nH]c3ccccc23)cc1` (stereo not drawn), 14.5%; as for `CC1(C)COC(C(c2ccccc2)c2c(-c3ccc4ccccc4c3)[nH]c3ccccc23)=N1` (stereo not drawn), 128%.
In the case of `NC(=O)C(c1ccc(Cl)cc1)c1c(-c2ccccc2)[nH]c2ccccc12` (stereo not drawn), the Residual cell viability stood at 14.1%.
As to `Cc1ccc(-c2[nH]c3ccccc3c2C(C2=NC(C)(C)CO2)c2ccccc2)cc1` (stereo not drawn), the Residual cell viability was 134%.
Same read-out and setting: as for `COc1ccc(-c2[nH]c3ccccc3c2C(C(N)=O)c2ccccc2OC)cc1` (stereo not drawn), the figure is 178%; as for `NC(=O)C(c1ccccc1)c1c(-c2ccccc2)[nH]c2ccc(Cl)cc12` (stereo not drawn), 136%.
The same measure, in the same setting: as for `CC1(C)COC(C(c2ccccc2Cl)c2c(-c3ccc4c(c3)CCCC4)[nH]c3ccccc23)=N1` (stereo not drawn), the figure is 34.3%.
On the same count and under the same terms, as for `COc1ccc(-c2[nH]c3ccccc3c2C(C(N)=O)c2ccccc2OC)cc1OC` (stereo not drawn), the figure is 169%.
With `COc1ccc(C(C(N)=O)c2c(-c3ccc4ccccc4c3)[nH]c3ccccc23)cc1OC` (stereo not drawn), the Residual cell viability is on record as 49.2%.
Take `NC(=O)C(c1ccccc1Cl)c1c(-c2ccccc2)[nH]c2ccccc12` (stereo not drawn): the Residual cell viability was found to be 13.9%.
Same read-out and setting: as for `Cc1ccc(-c2[nH]c3ccccc3c2C(C(N)=O)c2ccccc2)cc1` (stereo not drawn), the figure is 159%.
The same measure, in the same setting: as for `Cc1ccc(C(C(N)=O)c2c(-c3ccccc3)[nH]c3ccccc23)cc1` (stereo not drawn), the figure is 151%; as for `NC(=O)C(c1cccc(Cl)c1)c1c(-c2ccccc2)[nH]c2ccccc12` (stereo not drawn), 14.1%.
Same read-out and setting: as for `COc1ccccc1C(C(N)=O)c1c(-c2ccccc2)[nH]c2ccccc12` (stereo not drawn), the figure is 147%; as for `CC1(C)COC(C(c2ccc(Cl)cc2)c2c(-c3ccc4c(c3)CCCC4)[nH]c3ccccc23)=N1` (stereo not drawn), 145%.
For the compound `COc1ccccc1C(C(N)=O)c1c(-c2ccc3ccccc3c2)[nH]c2ccccc12` (stereo not drawn), the Residual cell viability turned out to be 42.4%.
